Reference: ChEMBL document CHEMBL1287690, “Mycoepoxydiene, a fungal polyketide, induces cell cycle arrest at the G2/M phase and apoptosis in HeLa cells” (Bioorg Med Chem Lett, 2010)
Activity calls are given as the source filed them.

Columns and labels:
AGS = experiment: Growth inhibition in human AGS cells after 72 hrs by MTT assay; type: functional, cell-based
A549 = experiment: Growth inhibition in human A549 cells after 72 hrs by MTT assay; type: functional, cell-based
HeLa [1] = experiment: Induction of JNK expression in human HeLa cells at 21 uM after 8 hrs by Western blotting; type: functional, cell-based
HeLa [2] = experiment: Induction of apoptosis in human HeLa cells assessed as increase of dead cells at 12 uM using propidium iodide staining by flow cytometry; type: functional, cell-based; conditions: TDE = time-dependent effect
HeLa [3] = experiment: Induction of apoptosis in human HeLa cells assessed as increase in PARP cleavage at 21 uM after 12 to 28 hrs by Western blotting; type: functional, cell-based
MDA-MB-231 = experiment: Growth inhibition in human MDA-MB-231 cells after 72 hrs by MTT assay; type: functional, cell-based
HeLa [4] = experiment: Induction of apoptosis in human HeLa cells assessed as increase in actin stress fiber formation across cell body after 12 hrs by phase contrast microscopic analysis; type: functional, cell-based; conditions: TDE = time-dependent effect
HeLa [5] = experiment: Induction of apoptosis in human HeLa cells assessed as increase in production of cyclin B1 at 14 to 21 uM after 12 hrs by immunoblot assay; type: functional, cell-based
HeLa [6] = experiment: Induction of apoptosis in human HeLa cells assessed as reduction in expression of Myt1 at 14 to 21 uM by immunoblot assay; type: functional, cell-based; conditions: TDE = time-dependent effect
MDA-MB-435 = experiment: Growth inhibition in human MDA-MB-435 cells after 72 hrs by MTT assay; type: functional, cell-based
U2OS = experiment: Growth inhibition in human U2OS cells after 72 hrs by MTT assay; type: functional, cell-based
HeLa [7] = experiment: Cell cycle arrest in human HeLa cells assessed as accumulation at sub-G1 phase at 21 uM after 36 hrs using propidium iodide staining by flow cytometry relative to control; type: functional
HeLa [8] = experiment: Induction of apoptosis in human HeLa cells assessed cell death up to 20 uM after 48 hrs using propidium iodide staining by flow cytometry in presence of SB-203580 treated 1 hr before compound challenge; type: functional, cell-based
HeLa [9] = experiment: Induction of apoptosis in human HeLa cells assessed as cell death in presence of 25 uM of […] z-VAD-fmk; type: functional, cell-based
KB = experiment: Cytotoxicity against human KB cells by MTT assay; type: functional, cell-based
[10] = biological target: c-Jun N-terminal kinase, JNK (Homo sapiens) (UniProt P45983+P53779+P45984); experiment: Induction of JNK phosphorylation at Thr183/Tyr185 in human HeLa cells at 21 uM after 30 mins by Western blotting; type: cell-based
HeLa [11] = experiment: Cell cycle arrest in human HeLa cells assessed as accumulation at sub-G1 phase at 14 uM after 36 hrs using propidium iodide staining by flow cytometry relative to control; type: functional
HeLa [12] = experiment: Induction of apoptosis in human HeLa cells assessed as increase in cytochrome C in cytoplasm at 21 uM after 20 hrs by Western blotting; type: functional, cell-based
HeLa [13] = experiment: Induction of apoptosis in human HeLa cells assessed as increase in production of p21 at 14 to 21 uM after 12 hrs by immunoblot assay; type: functional, cell-based
HeLa [14] = experiment: Induction of apoptosis in human HeLa cells assessed as increase in caspase-3 cleavage at 21 uM after 12 to 28 hrs by Western blotting in presence of z-VAD-fmk; type: functional, cell-based
HeLa [15] = experiment: Cell cycle arrest in human HeLa cells assessed as accumulation at G2/M phase at 14 uM after 36 hrs using propidium iodide staining by flow cytometry relative to control; type: functional
OVCAR-3 = experiment: Growth inhibition in human OVCAR-3 cells after 72 hrs by MTT assay; type: functional, cell-based
HeLa [16] = experiment: Induction of apoptosis in human HeLa cells assessed as reduction in expression of p34 after 12 hrs by immunoblot assay; type: functional, cell-based
MCF7 = experiment: Growth inhibition in human MCF7 cells after 72 hrs by MTT assay; type: functional, cell-based
HeLa [17] = experiment: Induction of p38 expression in human HeLa cells at 21 uM after 8 hrs by Western blotting; type: functional, cell-based
HeLa [18] = experiment: Induction of apoptosis in human HeLa cells assessed as reduction in expression of chk2 after 12 hrs by immunoblot assay; type: functional, cell-based
HeLa [19] = experiment: Induction of apoptosis in human HeLa cells assessed as reduction in expression of WEE1 at 14 to 21 uM by immunoblot assay; type: functional, cell-based; conditions: TDE = time-dependent effect
HeLa [20] = experiment: Induction of apoptosis in human HeLa cells assessed as increase in actin stress fiber formation across cell body at 14 to 21 uM by phase contrast microscopic analysis; type: functional, cell-based; conditions: TDE = time-dependent effect
HeLa [21] = experiment: Induction of apoptosis in human HeLa cells assessed as increase in cleavage fragments of p17 and p12 at 21 uM after 12 to 28 hrs by Western blotting; type: functional, cell-based
HeLa [22] = experiment: Growth inhibition in human HeLa cells after 72 hrs by MTT assay; type: functional, cell-based
HeLa [23] = experiment: Induction of apoptosis in human HeLa cells assessed as disruption of tubulin cytoskeleton at 14 to 21 uM by phase contrast microscopic analysis; type: functional, cell-based
DU-145 = experiment: Growth inhibition in human DU145 cells after 72 hrs by MTT assay; type: functional, cell-based
HeLa [24] = experiment: Induction of apoptosis in human HeLa cells assessed cell death up to 20 uM after 48 hrs using propidium iodide staining by flow cytometry in presence of JNK inhibitor 2 treated 1 hr before compound challenge; type: functional, cell-based
HeLa [25] = experiment: Induction of apoptosis in human HeLa cells assessed as reduction in expression of p34 at 14 to 21 uM by immunoblot assay; type: functional, cell-based; conditions: TDE = time-dependent effect
HeLa [26] = experiment: Induction of apoptosis in human HeLa cells assessed as reduction in expression of Cdc2 after 12 hrs by immunoblot assay; type: functional, cell-based
HeLa [27] = experiment: Cell cycle arrest in human HeLa cells assessed as accumulation at G2/M phase at 21 uM after 12 hrs using propidium iodide staining by flow cytometry relative to control; type: functional
HeLa [28] = experiment: Induction of apoptosis in human HeLa cells assessed as reduction in expression of chk1 at 14 to 21 uM by immunoblot assay; type: functional, cell-based; conditions: TDE = time-dependent effect
HeLa [29] = experiment: Induction of apoptosis in human HeLa cells assessed as increase of dead cells after 24 hrs using propidium iodide staining by flow cytometry; type: functional, cell-based
HeLa [30] = experiment: Induction of apoptosis in human HeLa cells assessed as increase of dead cells at 11 uM using propidium iodide staining by flow cytometry; type: functional, cell-based; conditions: TDE = time-dependent effect
HeLa [31] = experiment: Cell cycle arrest in human HeLa cells assessed as accumulation at G2/M phase at 21 uM after 36 hrs using propidium iodide staining by flow cytometry relative to control; type: functional
HeLa [32] = experiment: Induction of apoptosis in human HeLa cells assessed as reduction in expression of chk1 after 12 hrs by immunoblot assay; type: functional, cell-based
HeLa [33] = experiment: Induction of apoptosis in human HeLa cells assessed as reduction in expression of WEE1 after 12 hrs by immunoblot assay; type: functional, cell-based
HeLa [34] = experiment: Cell cycle arrest in human HeLa cells assessed as accumulation at G2/M phase at 14 uM after 12 hrs using propidium iodide staining by flow cytometry relative to control; type: functional
HeLa [35] = experiment: Induction of apoptosis in human HeLa cells assessed as reduction in expression of GADD45alpha at 14 to 21 uM by immunoblot assay; type: functional, cell-based; conditions: TDE = time-dependent effect
HeLa [36] = experiment: Induction of apoptosis in human HeLa cells assessed as reduction in expression of chk2 at 14 to 21 uM by immunoblot assay; type: functional, cell-based; conditions: TDE = time-dependent effect
HeLa [37] = experiment: Induction of apoptosis in human HeLa cells assessed as morphological changes at 14 to 21 uM after 9 hrs by phase contrast microscopic analysis; type: functional, cell-based
HeLa [38] = experiment: Induction of apoptosis in human HeLa cells assessed as reduction in expression of GADD45alpha after 12 hrs by immunoblot assay; type: functional, cell-based
HeLa [39] = experiment: Induction of apoptosis in human HeLa cells assessed as reduction in expression of Cdc2 at 14 to 21 uM by immunoblot assay; type: functional, cell-based; conditions: TDE = time-dependent effect
HT-29 = experiment: Growth inhibition in human HT-29 cells after 72 hrs by MTT assay; type: functional, cell-based
[40] = biological target: MAP kinase p38 (Homo sapiens) (UniProt O15264+Q15759+Q16539+P53778); experiment: Induction of p38 phosphorylation at Thr180/Tyr182 in human HeLa cells assessed at 21 uM after 30 mins by Western blotting; type: cell-based
HeLa [41] = experiment: Induction of apoptosis in human HeLa cells assessed as reduction in expression of Myt1 after 12 hrs by immunoblot assay; type: functional, cell-based
HeLa [42] = experiment: Cytotoxicity against human HeLa cells after 72 hrs by MTT assay; type: functional, cell-based

CC(=O)O[C@H]1C=CC(=O)O[C@H]1[C@@H]1[C@H](C)[C@H]2C=CC=C[C@@H]1O2 [MYCOEPOXYDIENE]
4.8%: Activity (HeLa [11])
16.8 µM: IC50 (HeLa [42])
< 21.5 µM: IC50 (KB)
31.3%: Activity (HeLa [31])
23.3%: Activity (HeLa [7])
31.4%: Activity (HeLa [15])
inactive: Activity (HeLa [1]) | Activity (HeLa [9]) | Activity (HeLa [14]) | Activity (HeLa [17])
active: growth inhibition (GI) (AGS) | growth inhibition (GI) (A549) | Activity (HeLa [2]) tde | Activity (HeLa [3]) | growth inhibition (GI) (MDA-MB-231) | Activity (HeLa [4]) tde | Activity (HeLa [5]) | Activity (HeLa [6]) tde | growth inhibition (GI) (MDA-MB-435) | growth inhibition (GI) (U2OS) | Activity (HeLa [8]) | Activity [10] | Activity (HeLa [12]) | Activity (HeLa [13]) | growth inhibition (GI) (OVCAR-3) | Activity (HeLa [16]) Dose-dependent effect | growth inhibition (GI) (MCF7) | Activity (HeLa [18]) Dose-dependent effect | Activity (HeLa [19]) tde | Activity (HeLa [20]) tde | Activity (HeLa [21]) | growth inhibition (GI) (HeLa [22]) | Activity (HeLa [23]) Dose-dependent effect | growth inhibition (GI) (DU-145) | Activity (HeLa [24]) | Activity (HeLa [25]) tde | Activity (HeLa [26]) Dose-dependent effect | Activity (HeLa [28]) tde | Activity (HeLa [29]) Dose-dependent effect | Activity (HeLa [30]) tde | Activity (HeLa [32]) Dose-dependent effect | Activity (HeLa [33]) Dose-dependent effect | Activity (HeLa [35]) tde | Activity (HeLa [36]) tde | Activity (HeLa [37]) | Activity (HeLa [38]) Dose-dependent effect | Activity (HeLa [39]) tde | growth inhibition (GI) (HT-29) | Activity [40] | Activity (HeLa [41]) Dose-dependent effect
47.5%: Activity (HeLa [27])
40.9%: Activity (HeLa [34])
